Like-named read-outs stand apart in the source and are kept apart here.
Key:
[1] = system: 22RV1 prostate cancer cells; experiment: Cell viability by trypan blue counting, 22RV1; format: cell-based, human; details: read-out: IC50 for reduction of cell viability/growth inhibition
Protocol: Cell culture: In the following examples, unless otherwise specified, all cell lines are purchased from American Type Culture Collection and cultured in American Type Culture Collection (ATCC)-recommended media, with fetal bovine serum (FBS) to a final concentration of 10% and 1×penicillin/streptomycin at 37° C. with 5% CO2 in a cell culture incubator, unless otherwise specified. Unless otherwise specified, culture is 2D. Where culture is 3D, low attachment plates are used, with the same media. C4-2B (parental cell line and drug-resistant cells derived therefrom) are cultured in RPMI-1640 with 10% FBS. MDVR cells (an Enzalutamide-resistant variety of C4-2B prostate cancer cells formed as described in Example 4 below) are cultured as indicated for the parental C4-2B cells. 22RV1 Prostate Cancer (PC) cells (ATCC® CRL-2505™, a human prostate carcinoma cell line of epithelial morphology) are cultured in RPMI-1640 with 10% FBS. […]
Example 1B: Prostate Cancer (PC) cells (22RV1, ATCC® CRL-2505™, a human prostate carcinoma cell line) are cultured according to the standard protocol, and exposed for 24-48 hours, to 0-50 μM of the respective compound (THSD, unconjugated dye). Cell viability is determined by counting viable cells and dead cells after treatment of the cells with trypan blue dye to distinguish viable from dead cells. […]

[2] = system: 22RV1 (PC); experiment: MTT cell viability, 22RV1; format: cell-based, human; details: Homo sapiens, 22Rv1, 22RV1, treated for 48 h /, relative IC50
Protocol: Cell culture: In the following examples, unless otherwise specified, all cell lines are purchased from American Type Culture Collection and cultured in American Type Culture Collection (ATCC)-recommended media, with fetal bovine serum (FBS) to a final concentration of 10% and 1×penicillin/streptomycin at 37° C. with 5% CO2 in a cell culture incubator, unless otherwise specified. Unless otherwise specified, culture is 2D. Where culture is 3D, low attachment plates are used, with the same media. C4-2B (parental cell line and drug-resistant cells derived therefrom) are cultured in RPMI-1640 with 10% FBS. MDVR cells (an Enzalutamide-resistant variety of C4-2B prostate cancer cells formed as described in Example 4 below) are cultured as indicated for the parental C4-2B cells. 22RV1 Prostate Cancer (PC) cells (ATCC® CRL-2505™, a human prostate carcinoma cell line of epithelial morphology) are cultured in RPMI-1640 with 10% FBS. A549 cells (ATCC® CCL-185™, a human lung carcinoma cell line of epithelial morphology) are cultured in F-12K medium with 10% FBS. A549/DDP cells (Cells were described in DOI: 10.3892/mmr.2014.2163 and in doi: 10.7150/jca.19426; cisplatin resistant cells may be established from exposing parental A549 cells to cisplatin for an extended time). MDR A549/cisplatin lung adenocarcinoma cell line, drug resistant) are cultured in F-12K medium with 10% FBS. H1975 cells (ATCC® CRL-5908™, a human adenocarcinoma non-small cell lung cancer cell line of epithelial morphology) are cultured in RPMI-1640 medium with 10% FBS; H1975 cells are a cell model for human lung cancer that is resistant to Gefitinib (an EGFR inhibitor drug used for treatment of certain breast, lung and other cancers). H1650 cells (ATCC® CRL-5883™, a adenocarcinoma/bronchoalveolar carcinoma lung cancer cell line of epithelial morphology) are cultured in RPMI-1640 medium with 10% FBS. […]
[…] For each cell line, the IC50 is determined for each drug, i.e. the ELSD, the ALSD, and for the corresponding unconjugated statin (Simvastatin), in concentrations from 0.1-100 μM. […]

[3] = system: 22Rv1 human prostate carcinoma tumors; experiment: Tumor volume of 22Rv1 tumors grown subcutaneously in mice; format: in vivo; details: 5 mg/kg, intravenously injected
Protocol: Example 1D: 22Rv1 human prostate carcinoma cells are cultured as described above, separated from the medium, resuspended in 50% phosphate buffered saline (PBS) and 50% BD Matrigel™ (BD Biosciences, CA), and then the re-suspended cells are injected and grown subcutaneously in mice. […] The decrease of the THSD in the tumors at 2 and 4 weeks, respectively, as determined by NIR signal, is less than about 30%.
Example 1E: 22Rv1 human prostate carcinoma cells are cultured, injected and grown subcutaneously in mice as described above in example 1D. Tumor volume is monitored by measuring the size by caliper and calculating volume as described in example 9 below. The mice are intravenously injected with the following: ALSD of formula FIId, “DZ2a”, compound 7, the corresponding unconjugated dye (here: DZ1), unconjugated Simvastatin, a statin drug (SIM), and docetaxel (DOC), a cancer drug, and a mixture of the ALSD with DOC. Each active was administered in an amount of 5 mg/kg for the ALSD, DZ1, and SIM, except, in case of DOC, 8 mg/kg. A slower rate of increased tumor volume indicates tumor suppressive activity.

SMILES | IC50 ([1]; 22RV1, exposed 24-48 hours, listed as unconjugated statin) | IC50 ([1]; Homo sapiens, 22Rv1, 22RV1, exposed 24-48 hours) | IC50 [2] | tumor suppressive activity (tumor volume increase) [3]
CCC(C)(C)C(=O)O[C@H]1C[C@@H](C)C=C2C=C[C@H](C)[C@H](CC[C@@H]3C[C@@H](O)CC(=O)O3)[C@H]21 [Simvastatin] | > 50 µM | > 60 µM | 38.7 µM | –
CC1(C)C(/C=C/C2=C(Cl)C(=C/C=C3/N(CCCCCC(=O)O)c4ccccc4C3(C)C)/CCC2)=[N+](CCCCS(=O)(=O)[O-])c2ccccc21 [DZ1] | – | – | – | no significant tumor suppressive activity

From patent US20230116399A1, “Tumor Homing Statin Derivatives” (Da Zen Theranostics, Inc., priority 2019, published 2023)
